Laboratory results taken from ChEMBL document CHEMBL1127262, “Novel HIV01 protease inhibitors containing A -hydroxy sulfide isostere” (Bioorg Med Chem Lett, 1994).
Values after ≈ are worked out from the molar mass of the structure shown.

Experiments:
[1] = target: Human immunodeficiency virus type 1 protease (Human immunodeficiency virus 1, UniProt Q72874); assay: Compound was tested for inhibitory activity against isolated HIV-1 protease
[2] = tested on: CCRF-CEM; assay: Compound was tested for whole cell antiviral activity against CEM cell lines; format: functional, cell-based; conditions: Homo sapiens
[3] = tested on: MT2; assay: Compound was tested for whole cell antiviral activity against MT2 cell lines; format: functional, cell-based; conditions: Homo sapiens
[4] = target: Human immunodeficiency virus type 1 protease (Human immunodeficiency virus 1) (UniProt Q72874); assay: Percent inhibition against isolated HIV-1 protease at a concentration of 1 ug/ml

| SMILES | IC50 [1] | IC50 [2] | IC50 [3] | inhibition [4] |
| --- | --- | --- | --- | --- |
| CC(C)(C)NC(=O)c1ccccc1S(=O)(=O)C[C@@H](O)[C@H](Cc1ccccc1)NC(=O)[C@H](CC(N)=O)NC(=O)c1ccc2ccccc2n1 | 509 nM | – | – | – |
| CC(C)(C)NC(=O)c1ccccc1C[C@@H](O)[C@H](Cc1ccccc1)NC(=O)[C@H](CC(N)=O)NC(=O)c1ccc2ccccc2n1 | – | 0.0137 µg/mL (≈ 0.0224 µM) | 0.0317 µg/mL (≈ 0.052 µM) | – |
| CC(C)(C)NC(=O)c1ccccc1[S+]([O-])C[C@@H](O)[C@H](Cc1ccccc1)NC(=O)[C@H](CC(N)=O)NC(=O)c1ccc2ccccc2n1 (stereo in doubt; 16a) | – | – | – | 69% |
| CC(C)(C)NC(=O)c1ccccc1SC[C@@H](O)[C@H](Cc1ccccc1)NC(=O)[C@H](CC(N)=O)NC(=O)c1ccc2ccccc2n1 | 13.4 nM | 0.48 µg/mL (≈ 0.748 µM) | 0.41 µg/mL (≈ 0.639 µM) | – |
| CC(C)(C)NC(=O)c1ccccc1SC[C@H](O)[C@H](Cc1ccccc1)NC(=O)[C@H](CC(N)=O)NC(=O)c1ccc2ccccc2n1 | 56.1 nM | 4.99 µg/mL (≈ 7.78 µM) | 4.38 µg/mL (≈ 6.82 µM) | – |
| CC(C)(C)NC(=O)c1ccccc1SC[C@@H](O)[C@H](Cc1ccccc1)NC(=O)[C@H](Cc1c[nH]cn1)NC(=O)c1ccc2ccccc2n1 | 208 nM | – | – | – |
| CC(C)(C)NC(=O)c1ccccc1[S+]([O-])C[C@@H](O)[C@H](Cc1ccccc1)NC(=O)[C@H](CC(N)=O)NC(=O)c1ccc2ccccc2n1 (stereo in doubt; 16b) | – | – | – | 28% |
